# Results from patent publication US10968232B2 (Merck Sharp & Dohme Corp., priority 2016, dated 2021).
# Target: T1, human GPR40 (Homo sapiens, UniProt O14842)
# T1 construct: expressed in transfected cells
# Assay: Inositol Phosphate Turnover (IP1) Assay
# Assay type: cell-based
# Conditions: HEK cells stably expressing human GPR40; CisBio IP-One kit; 60 minutes at 37 degrees; read-out: Human IP1 EC50
# Protocol: Human GPR40 stable cell-lines were generated in HEK cells. The expression plasmids were transfected using lipofectamine (Life Technologies) following manufacturer's instructions. Stable cell-lines were generated following drug selection and single cell cloning. The assay was performed in 384-well format. HEK cells stably expressing human GPR40 were plated at 7500 cells per well in growth medium (DMEM/10% fetal calf serum). Cell plates were then incubated 16 hours at 37 degrees in a 5% CO2 incubator. Measurement of Inositol Phosphate Turnover (IP1) was performed using the CisBio IP-One kit (Part number 62IPAPEB). After the 16 hour incubation, the growth media was removed by centrifugation using the BlueWasher (AusWasher GUI Ver. v1.0.1.8) Protocol #21-“Light Dry” and 10 ul of stimulation buffer (prepared as described in the kit) was added to each well. In a separate plate, compounds were diluted in DMSO (200-fold over the final concentration in the assay well) and 50 nl was acoustically transferred to the appropriate well in the assay cell plate. The plates were then incubated for 60 minutes at 37 degrees in a 5% CO2 incubator. 10 ul of detection buffer (also prepared as described in the IP-One kit) was added to each well and the plates were incubated at room temperature for 60 minutes in the dark. The plates were then read in a Perkin Elmer EnVision or equivalent reader able to measure FRET. […] Data was normalized to % activity using a reference compound and EC50s determined using a standard 4-parameter fit.
# T1 sequence (O14842 whole entry): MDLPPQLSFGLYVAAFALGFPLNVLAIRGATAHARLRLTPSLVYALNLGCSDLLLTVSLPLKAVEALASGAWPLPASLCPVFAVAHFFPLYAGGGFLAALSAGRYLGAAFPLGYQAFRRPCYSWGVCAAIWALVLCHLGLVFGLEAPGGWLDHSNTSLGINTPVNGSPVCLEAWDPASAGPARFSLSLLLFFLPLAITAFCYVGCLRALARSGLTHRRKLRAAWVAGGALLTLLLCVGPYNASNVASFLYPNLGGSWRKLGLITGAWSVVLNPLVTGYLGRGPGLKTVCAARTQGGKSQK
row,EC50 [nM],SMILES
1,3.3,"C[C@H](C(=O)O)[C@H](c1ccc2c(c1)OC1(CC2)CCN(c2cc(C(F)(F)F)ccc2C(F)(F)F)CC1)C1CC1 [Example 59, (2S,3R)-3-(1′-(2,5-bis(trifluoromethyl)phenyl)spiro[chroman-2,4′-piperidin]-7-yl)-3-cyclopropyl-2-methylpropanoic Acid]"
2,1.74,"C[C@H](C(=O)O)[C@H](c1ccc2c(c1)OC1(CC2)CCC(N(C)c2cc(C(F)(F)F)ccc2C(F)(F)F)CC1)C1CC1 (stereo partly drawn) [Example 70, (2S,3R)-3-(4′-((2,5-bis(trifluoromethyl)phenyl) (methyl)amino)spiro [chroman-2,1′-cyclohexan]-7-yl)-3-cyclopropyl-2-methylpropanoic acid]"
3,50.4,"CC(c1nc(C(F)(F)F)ccc1Cl)N1CCC2(CCc3ccc([C@H](C4CC4)[C@H](C)C(=O)O)cc3O2)CC1 (single isomer, unassigned) [Example 30]"
4,118,"C[C@H](C(=O)O)[C@H](c1ccc2c(c1)OC1(CC2)CCN(Cc2cc(Cl)cc3c2OC(C)(C)C3)CC1)C1CC1 [Example 61, sodium (2S3R)-3-(1′-((5-chloro-2,2-dimethyl-2,3-dihydrobenzofuran-7-yl)methyl)-spiro[chroman-2,4′-piperidin]-7-yl)-3-cyclopropyl-2-methylpropanoate]"
5,545,"C[C@H](C(=O)O)[C@H](c1ccc2c(c1)OC1(CC2)CCN(c2ccc3nc(C(F)(F)F)cn3n2)CC1)C1CC1 [Example 71, (2S,3R)-3-cyclopropyl-2-methyl-3-(1′-(2-(trifluoromethyl)imidazo[1,2-b]-pyridazin-6-yl)spiro[chroman-2,4′-piperidin]-7-yl)propanoic Acid]"
6,16.2,"C[C@H](C(=O)O)[C@H](c1ccc2c(c1)OC1(CC2)CC(N(C)Cc2cc(C(F)(F)F)ccc2C(F)(F)F)C1)C1CC1 (single isomer, unassigned) [Example 97]"
7,4.27,"C[C@H](C(=O)O)[C@H](c1ccc2c(c1)OC1(CC2)CCC(N(C)c2cc(C(F)(F)F)ccc2C(F)(F)F)CC1)C1CC1 (stereo partly drawn) [Example 66, (2S,3R)-3-(4′-((2,5-bis (trifluoromethyl)phenyl) (methyl)amino)spiro [chroman-2,1′-cyclohexan]-7-yl)-3-cyclopropyl-2-methylpropanoic acid]"
8,566,"C[C@H](C(=O)O)[C@H](c1ccc2c(c1)OC1(CC2)CCN(c2cncc(C(F)(F)F)c2)CC1)C1CC1 [Example 39, (2S,3R)-3-cyclopropyl-2-methyl-3-(1′-(5-(trifluoromethyl)pyridin-3-yl)Spiro [chroman-2,4′-piperidin]-7-yl)propanoic Acid]"
9,506,"C[C@H](C(=O)O)[C@H](c1ccc2c(c1)OC1(CC2)CCN(c2ccc3c(c2)c(C(F)(F)F)nn3C)CC1)C1CC1 [Example 38, (2S,3R)-3-cyclopropyl-2-methyl-3-(1′-(1-methyl-3-(trifluoromethyl)-1H-indazol-5-yl)spiro[chroman-2,4′-piperidin]-7-yl)propanoic acid]"
10,28.5,"C[C@H](C(=O)O)[C@H](c1ccc2c(c1)OC1(CC2)[C@@H]2CC[C@H]1CN([C@H](C)c1cc(F)ccc1C(F)(F)F)C2)C1CC1 (stereo partly drawn) [Example 84, (2S,3R)-3-cyclopropyl-3-((1R,5S)-3-((R)-1-(5-fluoro-2-(trifluoro-methyl)phenyl)ethyl)-3-azaspiro[bicyclo[3.2.1]oc-tane-8,2′-chroman]-7′-yl)-2-methylpropanoic acid]"
11,177,"C[C@H](C(=O)O)[C@H](c1ccc2c(c1)OC1(CC2)CCN(Cc2nc(C(F)(F)F)ccc2Cl)CC1)C1CC1 [Example 32, (2S,3R)-3-(1′-((3-chloro-6-(trifluoromethyl)-pyridin-2-yl)methyl)-spiro-[chroman-2,4′-piperidin]-7-yl)-3-cyclopropyl-2-methylpropanoic acid]"
